Laboratory results: publication PMC9304416, “A phosphite-based screening platform for identification of enzymes favoring nonnatural cofactors” (Scientific Reports, 2022)

Molecular target: T1, ME (malic enzyme) (Escherichia coli, UniProt P26616, L301R/Q392C, form not given)
T1 construct: gene maeA; C-terminal His6 tag kept; expressed in E. coli BW14329 from pTrc99K; crude lysate
Test: formazan (MTT/phenazine ethosulfate) absorbance at […] nm, crude lysate
Format: biochemical
Settings: 0.05 mM NCD; 5.0 mM L-malate; 50 mM HEPES pH 7.5; 10 mM MgCl2; room temperature

T1 sequence (P26616 whole entry L301R/Q392C, form open): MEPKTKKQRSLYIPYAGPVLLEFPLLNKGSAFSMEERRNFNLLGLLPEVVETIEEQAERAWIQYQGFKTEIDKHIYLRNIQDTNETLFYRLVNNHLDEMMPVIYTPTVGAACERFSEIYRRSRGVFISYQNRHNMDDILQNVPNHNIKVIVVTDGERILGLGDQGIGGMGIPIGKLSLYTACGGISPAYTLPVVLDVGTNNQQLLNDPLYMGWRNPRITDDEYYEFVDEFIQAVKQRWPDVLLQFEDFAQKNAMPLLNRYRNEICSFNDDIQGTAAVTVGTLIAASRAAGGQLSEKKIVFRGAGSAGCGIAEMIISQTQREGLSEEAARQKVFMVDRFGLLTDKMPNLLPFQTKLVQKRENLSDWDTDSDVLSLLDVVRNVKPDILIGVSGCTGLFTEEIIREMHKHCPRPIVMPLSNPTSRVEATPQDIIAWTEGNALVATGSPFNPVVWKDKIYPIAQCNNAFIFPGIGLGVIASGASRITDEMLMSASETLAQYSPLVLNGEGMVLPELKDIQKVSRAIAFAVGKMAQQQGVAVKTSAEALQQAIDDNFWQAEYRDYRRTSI

Compound: NC(=O)c1ccc[n+]([C@@H]2O[C@H](COP(=O)(O)OP(=O)(O)OC[C@H]3O[C@@H](n4ccc(N)nc4=O)[C@H](O)[C@@H]3O)[C@@H](O)[C@H]2O)c1 [NCD]
- formazan (MTT/phenazine ethosulfate) absorbance at 570 nm, crude lysate: ME* or ME-NCD, activity of ME* or ME toward NCD
